Reference: patent US20250052763A1, “COMPOSITIONS AND METHODS FOR IDENTIFYING LIGANDS OF ODORANT RECEPTORS” (Duke University, priority 2021, published 2025)

system: odorant receptors (ORs) expressed by OSNs; experiment: pS6-IP-Seq: identification of ORs activated by odorants in vivo; design: species or system mouse; details: odorant at 3 mM; responsive = log2FC>0 and FDR<0.05
Description: Phosphorylated S6 Ribosomal Capture (pS6-IP)
Mice used for pS6-IP were ˜3 weeks old, mixed sex, and littermates. Mice were killed by CO2 asphyxiation and cervical dislocation. Olfactory tissue was rapidly dissected in Buffer B (2.5 mM HEPES KOH pH 7.4, 0.63% glucose, 100 g/mL cycloheximide, 5 mM sodium fluoride, 1 mM sodium orthovanadate, 1 mM sodium pyrophosphate, 1 mM β-glycerophosphate, in Hank's balanced salt solution). Tissue pieces were then minced in 1.35 mL Buffer C (150 mM KCl, 5 mM MgCl2, 10 mM HEPES KOH pH 7.4, […], 2 mM DTT, 100 U/mL RNAsin, 100 µg/mL cycloheximide, protease inhibitor cocktail, 5 mM sodium fluoride, 1 mM sodium orthovanadate, 1 mM sodium pyrophosphate, 1 mM β-glycerophosphate) and subsequently transferred to homogenization tubes for steady homogenization at 250 rpm three times and at 750 rpm nine times at 4° C. […] This solution was mixed and then clarified at a max speed (17,000×g) for 10 min at 4° C. The resulting high-speed supernatant was transferred to a new tube where 20 μL was saved and transferred to a tube containing 350 L buffer RLT. To the remainder of the sample, 1.3 μL of 100 μg/mL cycloheximide, 27 μL of phosphatase inhibitor cocktail (250 mM sodium fluoride, 50 mM sodium orthovanadate, 50 mM sodium pyrophosphate, 50 mM β-glycerophosphate) and 6 μL of anti-pS6 antibody (Cell Signaling D68F8) were added. The sample was gently rotated for 90 min at 4° C. To prepare beads, 100 L of beads (Invitrogen 10002D) was washed three times with 900 L of buffer A (150 mM KCl, 5 mM MgCl2, 10 mM HEPES KOH pH 7.4, 10% NP40, 10% BSA), and once with 500 L of buffer C. Sample homogenate was added to the beads and incubated with gentle rotation for 60 min at 4° C. Following incubation, beads were washed with four times with 700 μL of buffer D (350 mM KCl, 5 mM MgCl2, 10 mM HEPES KOH pH 7.4, 10% NP40, 2 mM DTT, 100 U/mL RNAsin, 100 μg/mL cycloheximide, 5 mM sodium fluoride, 1 mM sodium orthovanadate, 1 mM sodium pyrophosphate, 1 mM β-glycerophosphate). During the final wash, beads were moved to room temperature, wash buffer was removed, and […] of buffer RLT was added. Beads were incubated in buffer RLT for 5 min at room temperature. Buffer RLT containing immunoprecipitated RNA was then eluted and stored at −80° C. until clean up using a kit (Qiagen 74004). cDNA was generated using 11 rounds of amplification with 10 ng RNA input. […] Libraries were sequenced on either HiSeq 2000/2500 (50 base pair single read mode) or NextSeq 500 (75 base pair single read mode) with 6-12 pooled indexed libraries per lane.
Reads mapping to Olfr290 were inferred from ENSMUSG00000070459, with the rationale that this gene model included ENSMUSG00000116179 plus untranslated regions. […] Intact Olfr genes with identifiable sequences were filtered, and p-values were then re-corrected by FDR. […] Raw and processed RNA-Seq datasets generated as part of this study are available from NCBI GEO at accession GSE185415.
First, ORs activated by a set of 61 odorants at various concentrations were determined by leveraging pS6-IP-Seq. […] ORs were considered odor-responsive if enrichment values (log2FC) were positive with a false discovery rate (FDR)<0.05.

Structure (SMILES) | ORs identified as responsive by pS6-IP-Seq
C[C@]12CCC(=O)C[C@@H]1CC[C@@H]1[C@@H]2CC[C@]2(C)C=CC[C@@H]12 [androstenone] | no ORs were identified as responsive

same assay, conditions: odorant at 1%; excluded from all analysis

Structure (SMILES) | number of ORs identified as responsive, relative to the mean
CC(=O)c1ccccc1O [2′-hydroxyacetophenone] | more than five standard deviations away from the mean

same assay, conditions: odorant at 1%; responsive = log2FC>0 and FDR<0.05

Structure (SMILES) | ORs identified as responsive by pS6-IP-Seq
C=C(C)C1CCC(C)C(O)C1 (single isomer, unassigned; (+)) [(+)-dihydrocarveol] | no ORs were identified as responsive
C=C(C)C1CCC(C)C(O)C1 (single isomer, unassigned; (-)) [(−)-dihydrocarveol] | no ORs were identified as responsive
C=C1CC/C=C(\C)CC[C@@H]2[C@@H]1CC2(C)C [P-Caryophyllene] | no ORs were identified as responsive
CSC [dimethyl sulfide] | no ORs were identified as responsive
CC(C)=CCC/C(C)=C/CO [geraniol] | no ORs were identified as responsive
c1ccc2[nH]ccc2c1 [indole] | no ORs were identified as responsive
CCC(=O)O [propionic acid] | no ORs were identified as responsive
